The record followed here is patent publication US11407767B2, “Heterocyclyl substituted pyrrolopyridines that are inhibitors of the CDK12 kinase” (The University of Nottingham, priority 2017, dated 2022).

pIC50: −log10 of the molar value. Some results are limits rather than exact numbers.

Sequence of CDK12/CycK (Q9NYV4 whole entry): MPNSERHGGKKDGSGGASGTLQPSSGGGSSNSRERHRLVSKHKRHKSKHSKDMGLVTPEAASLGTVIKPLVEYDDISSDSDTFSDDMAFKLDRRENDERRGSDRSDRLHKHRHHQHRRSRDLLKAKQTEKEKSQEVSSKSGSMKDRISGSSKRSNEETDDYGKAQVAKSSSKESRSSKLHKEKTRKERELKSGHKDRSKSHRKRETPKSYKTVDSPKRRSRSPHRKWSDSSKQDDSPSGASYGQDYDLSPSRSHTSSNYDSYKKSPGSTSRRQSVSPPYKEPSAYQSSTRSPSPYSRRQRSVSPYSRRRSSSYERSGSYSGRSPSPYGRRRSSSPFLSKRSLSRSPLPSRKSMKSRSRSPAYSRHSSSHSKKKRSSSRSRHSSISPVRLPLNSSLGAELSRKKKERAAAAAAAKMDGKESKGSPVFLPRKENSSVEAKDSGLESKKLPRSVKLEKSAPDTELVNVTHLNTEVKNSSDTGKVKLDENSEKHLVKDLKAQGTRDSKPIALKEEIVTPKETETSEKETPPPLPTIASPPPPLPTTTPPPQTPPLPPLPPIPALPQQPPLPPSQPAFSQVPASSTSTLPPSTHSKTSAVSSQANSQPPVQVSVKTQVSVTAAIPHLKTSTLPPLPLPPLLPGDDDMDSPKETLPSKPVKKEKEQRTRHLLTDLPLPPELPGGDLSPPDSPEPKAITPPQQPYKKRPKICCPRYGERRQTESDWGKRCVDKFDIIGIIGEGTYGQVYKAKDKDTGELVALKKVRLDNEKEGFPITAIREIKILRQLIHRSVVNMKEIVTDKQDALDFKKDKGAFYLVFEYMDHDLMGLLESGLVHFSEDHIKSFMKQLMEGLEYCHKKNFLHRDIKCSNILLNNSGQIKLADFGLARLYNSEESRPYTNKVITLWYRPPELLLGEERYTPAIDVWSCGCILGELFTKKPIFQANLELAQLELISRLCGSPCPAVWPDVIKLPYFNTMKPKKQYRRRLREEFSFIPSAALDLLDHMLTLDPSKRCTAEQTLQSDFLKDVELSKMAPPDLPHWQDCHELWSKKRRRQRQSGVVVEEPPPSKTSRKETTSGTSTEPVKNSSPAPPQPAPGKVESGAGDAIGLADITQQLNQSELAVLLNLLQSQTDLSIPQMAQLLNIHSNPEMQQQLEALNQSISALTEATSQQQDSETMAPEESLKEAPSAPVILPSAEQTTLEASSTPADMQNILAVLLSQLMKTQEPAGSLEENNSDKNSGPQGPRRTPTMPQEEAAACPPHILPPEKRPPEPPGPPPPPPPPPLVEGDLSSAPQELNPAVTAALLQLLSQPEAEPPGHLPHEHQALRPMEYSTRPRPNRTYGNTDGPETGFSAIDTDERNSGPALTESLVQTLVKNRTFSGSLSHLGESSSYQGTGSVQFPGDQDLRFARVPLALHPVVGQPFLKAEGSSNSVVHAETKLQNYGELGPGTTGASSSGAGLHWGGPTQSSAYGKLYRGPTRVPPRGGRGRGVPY
Sequence of CDK12/CycK (O75909 whole entry partner): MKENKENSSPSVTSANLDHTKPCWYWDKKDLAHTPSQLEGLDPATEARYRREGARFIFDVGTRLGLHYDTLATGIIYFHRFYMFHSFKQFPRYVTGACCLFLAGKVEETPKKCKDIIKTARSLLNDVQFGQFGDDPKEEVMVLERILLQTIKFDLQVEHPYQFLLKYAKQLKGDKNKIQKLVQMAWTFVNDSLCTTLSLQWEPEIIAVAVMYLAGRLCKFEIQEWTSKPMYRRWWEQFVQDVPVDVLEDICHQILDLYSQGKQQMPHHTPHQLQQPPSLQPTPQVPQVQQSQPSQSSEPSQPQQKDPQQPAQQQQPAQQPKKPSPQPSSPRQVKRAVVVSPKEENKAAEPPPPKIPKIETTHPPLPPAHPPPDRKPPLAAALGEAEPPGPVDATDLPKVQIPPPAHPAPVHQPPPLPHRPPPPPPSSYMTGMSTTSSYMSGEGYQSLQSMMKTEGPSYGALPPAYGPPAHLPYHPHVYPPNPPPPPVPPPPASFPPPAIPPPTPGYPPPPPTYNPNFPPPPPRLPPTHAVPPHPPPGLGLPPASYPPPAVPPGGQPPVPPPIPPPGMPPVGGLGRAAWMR

The target of the assay is CDK12/CycK (Homo sapiens, UniProt Q9NYV4). The assay can be described thus: Inhibition of CDK12 (ADP-Glo kinase assay). The assay is classed as biochemical. The settings on record: 60 nM CDK12/CycK, 30 minutes pre-incubation, 1 μM ATP, 0.5 μM RBER-IRStide substrate, 1 h at 25° C., read-out: CDK12/cyclin K IC50. The method, then:
Assay buffer comprised 50 mM HEPES pH 7.5, 1 mM DTT, 20 mM MgCl2, 3 mM MnCl2, 3 μM Na3VO4 and 50 μg/ml PEG8000. Kinase reactions were carried out in 384-well Optiplates™ (PerkinElmer 6007299). Test compounds were dissolved & diluted in dimethyl sulfoxide (DMSO) and cross diluted into assay buffer with a final DMSO concentration of 1% (v/v) in the assay. Test compounds (or 1% DMSO in control and blank wells) were pre-incubated with 60 nM CDK12/CycK for 30 minutes. After this time 1 μM Adenosine-5′-triphosphate (ATP) and 0.5 μM RBER-IRStide substrate (ProQinase 0863-0000-1) were added to commence the kinase reaction. Incubations were carried out for 1 h at 25° C. with kinase activity determined using the ADP-Glo™ reagent from Promega according to the manufacturer's instructions. Light generated is proportional to kinase activity and measured using a luminometer (EnVision, PerkinElmer). The signal obtained in the blank wells (containing no kinase) was subtracted from all other wells and IC50 values were determined by fitting a sigmoidal curve to % inhibition of control versus Log10 compound concentration.
For `O=C(NCCc1cc2c(-c3cnn4ncccc34)ccnc2[nH]1)[C@@H]1CCCN1C(=O)CCl` [Example 41, (S)-1-(2-Chloroacetyl)-N-(2-(4-(pyrazolo[1,5-b]pyridazin-3-yl)-1H-pyrrolo[2,3-b]pyridin-2-yl)ethyl)pyrrolidine-2-carboxamide], the pIC50 is 6.00 to 7.00.

For the molecule `C=CC(=O)N1CCC[C@H]1C(=O)N(C)CCc1cc2c(-c3cnn4ncccc34)ccnc2[nH]1` [Example 46, (S)-1-Acryloyl-N-methyl-N-(2-(4-(pyrazolo[1,5-b]pyridazin-3-yl)-1H-pyrrolo[2,3-b]pyridin-2-yl)ethyl)pyrrolidine-2-carboxamide], the pIC50 is 6.00 to 7.00.

`C=CC(=O)N1CCC[C@@H]1C(=O)N(C)CCc1cc2c(-c3cnn4ncccc34)ccnc2[nH]1` [Example 47, (R)-1-Acryloyl-N-methyl-N-(2-(4-(pyrazolo[1,5-b]pyridazin-3-yl)-1H-pyrrolo[2,3-b]pyridin-2-yl)ethyl)pyrrolidine-2-carboxamide]: the pIC50 was 4.52 to 6.00.

With `C=CC(=O)N1CCC[C@H](C(=O)N(C)CCc2cc3c(-c4cnn5ncccc45)ccnc3[nH]2)C1` [Example 48, (S)-1-Acryloyl-N-methyl-N-(2-(4-(pyrazolo[1,5-b]pyridazin-3-yl)-1H-pyrrolo[2,3-b]pyridin-2-yl)ethyl)piperidine-3-carboxamide], the pIC50 was 6.00 to 7.00.

Turning to `C=CC(=O)Nc1cccc(C(=O)N(C)CCc2cc3c(-c4cnn5ncccc45)ccnc3[nH]2)c1` [Example 49, 3-Acrylamido-N-methyl-N-(2-(4-(pyrazolo[1,5-b]pyridazin-3-yl)-1H-pyrrolo[2,3-b]pyridin-2-yl)ethyl)benzamide], the pIC50 was 6.00 to 7.00.

For the molecule `C=CC(=O)N1CCC[C@H]1C(=O)N(CC)CCc1cc2c(-c3cnn4ncccc34)ccnc2[nH]1` [Example 50, (S)-1-Acryloyl-N-ethyl-N-(2-(4-(pyrazolo[1,5-b]pyridazin-3-yl)-1H-pyrrolo[2,3-b]pyridin-2-yl)ethyl)pyrrolidine-2-carboxamide], the pIC50 was 4.52 to 6.00.

On to `C=CC(=O)N1CCC[C@H]1C(=O)NCCc1cc2c(-c3ccnn3C)ccnc2[nH]1` [Example 51, (S)-1-Acryloyl-N-(2-(4-(1-methyl-1H-pyrazol-5-yl)-1H-pyrrolo[2,3-b]pyridin-2-yl)ethyl)pyrrolidine-2-carboxamide], for which the pIC50 is 4.52 to 6.00.

Turning to `C=CC(=O)N1CCC[C@@H]1C(=O)NCCc1cc2c(-c3ccnn3C)ccnc2[nH]1` [Example 52, (R)-1-Acryloyl-N-(2-(4-(1-methyl-1H-pyrazol-5-yl)-1H-pyrrolo[2,3-b]pyridin-2-yl)ethyl)pyrrolidine-2-carboxamide], the pIC50 is 4.52 to 6.00.

As to `C=CC(=O)N1CCC[C@H]1C(=O)NCCc1cc2c(-c3cnn4ncccc34)c(Cl)cnc2[nH]1` [Example 53, (S)-1-Acryloyl-N-(2-(5-chloro-4-(pyrazolo[1,5-b]pyridazin-3-yl)-1H-pyrrolo[2,3-b]pyridin-2-yl)ethyl)pyrrolidine-2-carboxamide], the pIC50 is > 7.00.

Take `C=CC(=O)Nc1cccc(C(=O)NCCc2cc3c(-c4cnn5ncccc45)c(Cl)cnc3[nH]2)c1` [Example 56, 3-Acrylamido-N-(2-(5-chloro-4-(pyrazolo[1,5-b]pyridazin-3-yl)-1H-pyrrolo[2,3-b]pyridin-2-yl)ethyl)benzamide]: the pIC50 was > 7.00.

`C=CC(=O)N[C@H]1COC[C@@H]1C(=O)NCc1cc2c(-c3cnn4ncccc34)ccnc2[nH]1` [Example 58, (3R,4R)-4-Acrylamido-N-((4-(pyrazolo[1,5-b]pyridazin-3-yl)-1H-pyrrolo[2,3-b]pyridin-2-yl)methyl)tetrahydrofuran-3-carboxamide]: the pIC50 was 4.52 to 6.00.

Turning to `C=CC(=O)N[C@@H]1CC[C@@H](C(=O)NCc2cc3c(-c4cnn5ncccc45)ccnc3[nH]2)C1` [Example 59, (1R,3R)-3-Acrylamido-N-((4-(pyrazolo[1,5-b]pyridazin-3-yl)-1H-pyrrolo[2,3-b]pyridin-2-yl)methyl)cyclopentane-1-carboxamide], the pIC50 is 4.52 to 6.00.

Turning to `C=CC(=O)N1CCOC(C(=O)NCCc2cc3c(-c4cnn5ncccc45)ccnc3[nH]2)C1` (stereo not drawn) [Example 60, 4-Acryloyl-N-(2-(4-(pyrazolo[1,5-b]pyridazin-3-yl)-1H-pyrrolo[2,3-b]pyridin-2-yl)ethyl)morpholine-2-carboxamide], the pIC50 was > 7.00.

As to `C=CC(=O)N[C@@H]1CC[C@@H](C(=O)NCCc2cc3c(-c4cnn5ncccc45)ccnc3[nH]2)C1` [Example 64, (1R,3R)-3-Acrylamido-N-(2-(4-(pyrazolo[1,5-b]pyridazin-3-yl)-1H-pyrrolo[2,3-b]pyridin-2-yl)ethyl)cyclopentane-1-carboxamide], the pIC50 is 6.00 to 7.00.

In the case of `C=CC(=O)Nc1cncc(C(=O)N2CCC(c3cc4c(-c5cnn6ncccc56)ccnc4[nH]3)C2)c1` (stereo not drawn) [Example 65, N-(5-(3-(4-(Pyrazolo[1,5-b]pyridazin-3-yl)-1H-pyrrolo[2,3-b]pyridin-2-yl)pyrrolidine-1-carbonyl)pyridin-3-yl)acrylamide], the pIC50 is > 7.00.

Regarding `CN(C)C/C=C/C(=O)N1CCC(C(=O)N2CCC(c3cc4c(-c5cnn6ncccc56)ccnc4[nH]3)CC2)CC1` [Example 66, (E)-4-(Dimethylamino)-1-(4-(4-(4-(pyrazolo[1,5-b]pyridazin-3-yl)-1H-pyrrolo[2,3-b]pyridin-2-yl)piperidine-1-carbonyl)piperidin-1-yl)but-2-en-1-one], the pIC50 is > 7.00.

For `CN(C)C/C=C/C(=O)N1CC[C@@H](C(=O)N2CCC(c3cc4c(-c5cnn6ncccc56)ccnc4[nH]3)CC2)C1` [Example 67, (R,E)-4-(Dimethylamino)-1-(3-(4-(4-(pyrazolo[1,5-b]pyridazin-3-yl)-1H-pyrrolo[2,3-b]pyridin-2-yl)piperidine-1-carbonyl)pyrrolidin-1-yl)but-2-en-1-one], the pIC50 was > 7.00.

For the molecule `CN(C)C/C=C/C(=O)Nc1cncc(C(=O)N2CC[C@H](c3cc4c(-c5cnn6ncccc56)ccnc4[nH]3)C2)c1` [Example 68, (S,E)-4-(Dimethylamino)-N-(5-(3-(4-(pyrazolo[1,5-b]pyridazin-3-yl)-1H-pyrrolo[2,3-b]pyridin-2-yl)pyrrolidine-1-carbonyl)pyridin-3-yl)but-2-enamide], the pIC50 is > 7.00.

Consider `C=CC(=O)N1CCCC(C(=O)NCCc2cc3c(-c4cnn5ncccc45)ccnc3[nH]2)C1` (stereo not drawn) [Example 75, 1-Acryloyl-N-(2-(4-(pyrazolo[1,5-b]pyridazin-3-yl)-1H-pyrrolo[2,3-b]pyridin-2-yl)ethyl)piperidine-3-carboxamide], for which the pIC50 was > 7.00.

For the molecule `C=CC(=O)N1CCC(C(=O)NCCc2cc3c(-c4cnn5ncccc45)ccnc3[nH]2)CC1` [Example 77, 1-Acryloyl-N-(2-(4-(pyrazolo[1,5-b]pyridazin-3-yl)-1H-pyrrolo[2,3-b]pyridin-2-yl)ethyl)piperidine-4-carboxamide], the pIC50 is 6.00 to 7.00.

As for `O=C(NCCc1cc2c(-c3cnn4ncccc34)ccnc2[nH]1)[C@@H]1CCCN1C(=O)CO` [Example 78, (S)-1-(2-Hydroxyacetyl)-N-(2-(4-(pyrazolo[1,5-b]pyridazin-3-yl)-1H-pyrrolo[2,3-b]pyridin-2-yl)ethyl)pyrrolidine-2-carboxamide], the pIC50 was 6.00 to 7.00.

As for `O=C(NCCc1cc2c(-c3cnn4ncccc34)ccnc2[nH]1)[C@H]1CCCN1C(=O)CO` [Example 79, (R)-1-(2-Hydroxyacetyl)-N-(2-(4-(pyrazolo[1,5-b]pyridazin-3-yl)-1H-pyrrolo[2,3-b]pyridin-2-yl)ethyl)pyrrolidine-2-carboxamide], the pIC50 is 6.00 to 7.00.

On to `C=CC(=O)N1CCC(C(=O)NCc2cc3c(-c4cnn5ncccc45)ccnc3[nH]2)CC1` [Example 80, 1-Acryloyl-N-((4-(pyrazolo[1,5-b]pyridazin-3-yl)-1H-pyrrolo[2,3-b]pyridin-2-yl)methyl)piperidine-4-carboxamide], for which the pIC50 was 4.52 to 6.00.

For the molecule `CCOCCC(=O)Nc1ccc(C(=O)NCCc2cc3c(-c4cnn5ncccc45)ccnc3[nH]2)cc1` [Example 81, 4-(3-Ethoxypropanamido)-N-(2-(4-(pyrazolo[1,5-b]pyridazin-3-yl)-1H-pyrrolo[2,3-b]pyridin-2-yl)ethyl)benzamide], the pIC50 is > 7.00.

In the case of `O=C(NCCc1cc2c(-c3cnn4ncccc34)ccnc2[nH]1)[C@@H]1CCCN1` [Example 82, (S)—N-(2-(4-(pyrazolo[1,5-b]pyridazin-3-yl)-1H-pyrrolo[2,3-b]pyridin-2-yl)ethyl)pyrrolidine-2-carboxamide], the pIC50 was 6.00 to 7.00.

As for `O=C(NCCc1cc2c(-c3cnn4ncccc34)ccnc2[nH]1)[C@@H]1CCCN1C(=O)/C=C/CN1CCCC1` [Example 85, (S,E)-N-(2-(4-(pyrazolo[1,5-b]pyridazin-3-yl)-1H-pyrrolo[2,3-b]pyridin-2-yl)ethyl)-1-(4-(pyrrolidin-1-yl)but-2-enoyl)pyrrolidine-2-carboxamide], the pIC50 was 4.52 to 6.00.

`O=C(NCCc1cc2c(-c3cnn4ncccc34)ccnc2[nH]1)[C@@H]1CCCN1C(=O)/C=C/CN1CCOCC1` [Example 86, (S,E)-1-(4-Morpholinobut-2-enoyl)-N-(2-(4-(pyrazolo[1,5-b]pyridazin-3-yl)-1H-pyrrolo[2,3-b]pyridin-2-yl)ethyl)pyrrolidine-2-carboxamide]: the pIC50 is 4.52 to 6.00.
